Laboratory results taken from patent publication US6479554B2, “Immunotherapeutic agents” (Celgene Corporation, priority 1996, dated 2002).

In the case of CCc1ccc(C(=CC#N)c2ccc(OC)c(OC)c2)cc1CC [Example 26, 3-(3,4-Diethylphenyl)-3-(3,4-dimethoxyphenyl)acrylonitrile], the melting point is reported as 78 to 82 °C.

Work on COc1ccc(C(=CC#N)c2cccc([N+](=O)[O-])c2)cc1OC [Example 11, 3-(3,4-Dimethoxyphenyl)-3-(3′-nitrophenyl)acrylonitrile] yielded a melting point of 117.5 to 120 °C.

With COc1ccc(C(=CC#N)c2ccc(-c3ccccc3)cc2)cc1OC [Example 18, 3-(4-Biphenylyl)-3-(3,4-dimethoxyphenyl)acrylonitrile] the melting point was 132 to 134 °C.

For COc1ccc(C(=CC#N)c2ccc([N+](=O)[O-])cc2)cc1OC [Example 14, 3-(3,4-Dimethoxyphenyl)-3-(4-nitrophenyl)acrylonitrile], the melting point was 117.5 to 120 °C.

COc1ccc(C(=CC#N)c2ccc3ccccc3c2)cc1OC [Example 20, 3-(3,4-Dimethoxyphenyl)-3-naphth-2-ylacrylonitrile] gave a melting point of 121 to 123 °C.

In the case of COc1ccc(C(=CC#N)c2ccco2)cc1OC [Example 24, 3-(3,4-Dimethoxyphenyl)-3-(2-furyl)acrylonitrile], the melting point is reported as 78 to 82 °C.

Compound COc1ccc(C(=O)c2cccc(N)c2)cc1OC [Example 13, 3,4-Dimethoxy-3′-aminobenzophenone] has a melting point of 157 to 175 °C.

With COc1ccc(C(=O)c2ccc(N)cc2)cc1OC [Example 16, 3,4-Dimethoxy-4′-aminobenzophenone] the melting point was 189 to 191 °C.

Compound COc1ccc(C(=O)c2c(OC)cccc2OC)cc1OC [Example 30, 2′,6′,3,4-Tetramethoxybenzophenone] has a melting point of 128 to 129 °C.

For CC=C(c1ccccc1)c1ccc(OC)c(OC)c1 [Example 5, 1-(3,4-Dimethoxyphenyl)-1-phenylprop-1-ene], the melting point was 72 to 73 °C.

COc1ccc(C(=CC#N)c2ccncc2)cc1OC [Example 22, 3-(3,4-Dimethoxyphenyl)-3-pyridin-4-ylacrylonitrile] gave a melting point of 116 to 125 °C.

For COc1cc(OC)cc(C(=CC#N)c2ccc(OC)c(OC)c2)c1 [Example 10, 3-(3,4-Dimethoxyphenyl)-3-(3′,5′-dimethoxyphenyl)-acrylonitrile], the melting point was 88 to 90 °C.

Work on CC=C(c1ccc(OC)c(OC)c1)c1ccc(OC)c(OCC)c1 [Example 6, 1-(3,4-Dimethoxyphenyl)-1-(3-ethoxy-4-methoxyphenyl)prop-1-ene] yielded a melting point of 65.5 to 68 °C.

COc1ccc(C(=CC#N)c2ccc3c(c2)OCO3)cc1OC [Example 21, 3-(3,4-Dimethoxyphenyl)-3-(3,4-methylenedioxyphenyl)acrylonitrile] showed a melting point of 121 to 123 °C.

Compound CCOc1cc(C(=CC#N)c2ccccc2)ccc1OC [Example 8, 3-(3-Ethoxy-4-methoxyphenyl)-3-phenylacrylonitrile] has a melting point of 74 to 77 °C.

Compound COc1ccc(C(=CC#N)c2ccc(F)cc2)cc1OC [Example 19, 3-(3,4-Dimethoxyphenyl)-3-(4′-fluorophenyl)acrylonitrile] has a melting point of 100 to 102 °C.

Compound COc1ccc(C(=CC#N)c2ccccn2)cc1OC [Example 23, 3-(3,4-Dimethoxyphenyl)-3-pyridin-2-ylacrylonitrile] has a melting point of 134.5 to 135.5 °C.

COc1ccc(C(=CC#N)c2ccc(C)cc2)cc1OC [Example 17, 3-(3,4-Dimethoxyphenyl)-3-(4-methylphenyl)acrylonitrile] gave a melting point of 83.5 to 86.5 °C.
